According to patent publication US20260070917A1, “CYCLIN DEPENDENT KINASE DEGRADERS AND METHODS OF USE THEREOF” (Differentiated Therapeutics Inc, priority 2023, published 2026):
Read-outs that look alike come from different tables or passages of the source.

Key:
Assay type in all cases: cell-based
CCNE1 = biological target: T1, CCNE1 (Homo sapiens, UniProt P24864); test: HiBit Assay Protocol for CCNE1 (HIBIT protein quantification, degradation); details: HEK293-CCNE1-Hibit cells, compound treatment for 6 hours
T1 construct: host or cells: HEK293-CCNE1-Hibit
T1 sequence (P24864 whole entry): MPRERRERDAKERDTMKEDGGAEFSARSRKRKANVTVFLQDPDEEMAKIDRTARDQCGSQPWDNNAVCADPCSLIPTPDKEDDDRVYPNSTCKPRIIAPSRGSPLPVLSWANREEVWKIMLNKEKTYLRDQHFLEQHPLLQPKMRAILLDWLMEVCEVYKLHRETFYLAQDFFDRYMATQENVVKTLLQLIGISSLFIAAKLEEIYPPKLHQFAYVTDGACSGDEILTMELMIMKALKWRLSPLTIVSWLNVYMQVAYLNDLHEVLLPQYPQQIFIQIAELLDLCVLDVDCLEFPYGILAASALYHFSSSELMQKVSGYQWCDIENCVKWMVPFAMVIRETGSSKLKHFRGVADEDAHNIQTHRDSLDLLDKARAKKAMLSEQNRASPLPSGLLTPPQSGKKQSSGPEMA
Method in brief: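 HEK293 cells expressing HiBiT-tagged CCNE1 were seeded overnight, then treated 6 h with a 3-fold, 10-point compound dilution series. HiBiT levels were read by lytic LgBiT luminescence and normalised to DMSO-only (high) and medium-only (low) controls. DC50 was derived by curve fitting.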

CDK9 = biological target: T2, CDK9 (Homo sapiens, UniProt P50750); test: HiBit Assay Protocol for CDK9 (HIBIT protein quantification, degradation); details: HEK293-CDK9-Hibit cells, compound treatment for 6 hours; for Dmax: read-out: CDK9 HIBIT Protein Quantification Maximum; for DC50: ABS DC50
T2 construct: host or cells: HEK293-CDK9-Hibit
T2 sequence (P50750 whole entry): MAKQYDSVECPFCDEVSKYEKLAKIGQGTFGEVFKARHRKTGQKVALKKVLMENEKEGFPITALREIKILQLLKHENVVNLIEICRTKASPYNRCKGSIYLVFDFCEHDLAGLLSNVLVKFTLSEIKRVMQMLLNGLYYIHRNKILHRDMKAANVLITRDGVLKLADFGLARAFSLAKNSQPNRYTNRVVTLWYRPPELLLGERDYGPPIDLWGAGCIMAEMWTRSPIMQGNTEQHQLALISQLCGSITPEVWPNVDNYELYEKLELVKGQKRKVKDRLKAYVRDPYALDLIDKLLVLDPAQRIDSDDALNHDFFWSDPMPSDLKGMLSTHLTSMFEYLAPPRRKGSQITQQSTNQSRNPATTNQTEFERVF
Method in brief: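 HEK293 cells carrying HiBiT-tagged CDK9 treated 6 h with compounds in a 3-fold, 10-point dilution series. CDK9 level read by lytic Nano-Glo HiBiT/LgBiT luminescence and normalized to 0.1% DMSO (high) and medium-only (low) controls. DC50 from curve fitting.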

CDK2 = biological target: T3, CDK2 (Homo sapiens, UniProt P24941); test: HiBit Assay Protocol for CDK2 (HIBIT protein quantification, degradation); details: HEK293-CDK2-Hibit cells, compound treatment for 6 hours; for DC50: ABS DC50
T3 construct: host or cells: HEK293-CDK2-Hibit
Method in brief: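 HEK293 cells expressing HiBiT-tagged CDK2 were seeded overnight, then treated 6 h with a 3-fold, 10-point compound dilution series. CDK2 levels were read as luminescence after lytic HiBiT/LgBiT detection, normalised to DMSO-only and medium-only controls, and DC50 derived by curve fitting.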

| Structure (SMILES) | CCNE1 HIBIT Protein Quantification Maximum (CCNE1) | Dmax (CDK9; 6 h) | CDK2 HIBIT Protein Quantification Maximum (CDK2) | DC50 (CDK9) | DC50 (CDK2) | Dmax (CDK9) |
| --- | --- | --- | --- | --- | --- | --- |
| CC1CCCC1N1C(=O)C2(CC2)c2cnc(NC3CCN(S(=O)(=O)N4CC5CN(C(=O)CCCc6ccc7c(c6)n(C)c(=O)n7C6CCC(=O)NC6=O)CC54)CC3)nc21 (stereo not shown) [Compound 70] | 6% | 15% | −3% | – | – | – |
| CC1CCCC1N1C(=O)C2(CC2)c2cnc(NC3CCN(S(=O)(=O)N4CCC5(CCN(C(=O)CCCCc6ccc7c(c6)n(C)c(=O)n7C6CCC(=O)NC6=O)C5)C4)CC3)nc21 (stereo not shown) [Compound 112] | 14% | 28% | 22% | – | – | – |
| CC1CCCC1N1C(=O)C2(CC2)c2cnc(NC3CCN(S(=O)(=O)N4CCC5(CCN(CCCCCCCOc6cccc7c6n(C)c(=O)n7C6CCC(=O)NC6=O)C5)C4)CC3)nc21 (stereo not shown) [Compound 141, 3-(3-Methyl-4-{[7-(7-{4-[7′-(2-methylcyclopentyl)-6′-oxospiro[cyclopropane-1,5′-pyrrolo[2,3-d]pyrimidin]-2′-ylamino]piperidin-1-ylsulfonyl}-2,7-diazaspiro[4.4]nonan-2-yl)heptyl]oxy}-2-oxo-1,3-benzodiazol-1-yl)piperidine-2,6-dione] | 25% | 27% | 49% | – | – | – |
| CC1CCCC1N1C(=O)C2(CC2)c2cnc(NC3CCN(S(=O)(=O)N4CCC5(CCN(C(=O)CCc6ccc7c(c6)n(C)c(=O)n7C6CCC(=O)NC6=O)C5)C4)CC3)nc21 (stereo not shown) [Compound 60] | 17% | 28% | 18% | – | – | – |
| CC1CCCC1N1C(=O)C2(CC2)c2cnc(NC3CCN(S(=O)(=O)N4CC5CN(C(=O)CCc6cccc7c6n(C)c(=O)n7C6CCC(=O)NC6=O)CC5C4)CC3)nc21 (stereo not shown) [Compound 16] | 17% | 57% | 49% | 3.67 nM | – | – |
| CC1CCCC1N1C(=O)C2(CC2)c2cnc(NC3CCN(S(=O)(=O)N4CC5(CCCN(C6CCN(c7cccc8c7n(C)c(=O)n8C7CCC(=O)NC7=O)CC6)C5)C4)CC3)nc21 (stereo not shown) [Compound 139] | 50% | 11% | 65% | – | 3.23 nM | – |
| CC1CCCC1N1C(=O)C2(CC2)c2cnc(NC3CCN(S(=O)(=O)N4CC5(CCCCN5C(=O)CCCCc5cccc6c5n(C)c(=O)n6C5CCC(=O)NC5=O)C4)CC3)nc21 (stereo not shown) [Compound 95] | 15% | 7% | 65% | – | 11 nM | – |
| Cn1c(=O)n(C2CCC(=O)NC2=O)c2cccc(-c3ccc(Oc4cccc(S(=O)(=O)N5CCC(Nc6ncc7c(n6)N([C@@H]6CCC[C@@H](O)C6)C(=O)C76CC6)CC5)c4)cc3)c21 (stereo partly shown) [Compound 150] | 41% | 45% | 67% | – | 12.9 nM | – |
| CC1CCCC1N1C(=O)C2(CC2)c2cnc(NC3CCN(S(=O)(=O)N4CC(N(C)C(=O)CCCCCCCCCc5cccc6c5n(C)c(=O)n6C5CCC(=O)NC5=O)C4)CC3)nc21 (stereo not shown) [Compound 49] | 8% | 66% | 62% | 6.53 nM | 34 nM | – |
| CC(c1cccc(S(=O)(=O)N2CC[C@H](Nc3ncc4c(n3)N([C@@H]3CCC[C@@H](O)C3)C(=O)C43CC3)[C@H](F)C2)c1)N1CCC(c2ccc3c(N4CCC(=O)NC4=O)nn(C)c3c2)CC1 (stereo partly shown) [Compound 188] | 45% | 24% | 85% | – | 1.92 nM | – |
| CC1CCCC1N1C(=O)C2(CC2)c2cnc(NC3CCN(S(=O)(=O)C4CCN(CC5CCN(c6ccc7c(c6)n(C)c(=O)n7C6CCC(=O)NC6=O)CC5)C4)CC3)nc21 (stereo not shown) [Compound 140, 3-(3-Methyl-5-{4-[(3-{4-[7′-(2-methylcyclopentyl)-6′-oxospiro[cyclopropane-1,5′-pyrrolo[2,3-d]pyrimidin]-2′-ylamino]piperidin-1-ylsulfonyl}pyrrolidin-1-yl)methyl]piperidin-1-yl}-2-oxo-1,3-benzodiazol-1-yl)piperidine-2,6-dione] | 20% | 8% | 71% | – | 2.09 nM | – |
| CC1CCCC1N1C(=O)C2(CC2)c2cnc(NC3CCN(S(=O)(=O)N4CC(N(C)C(=O)CCCCCc5cccc6c5n(C)c(=O)n6C5CCC(=O)NC5=O)C4)CC3)nc21 (stereo not shown) [Compound 34] | 44% | 61% | 72% | 13.6 nM | 6 nM | – |
| CC1CCCC1N1C(=O)C2(CC2)c2cnc(NC3CCN(S(=O)(=O)N4CC5(CN(C(=O)CCc6cccc7c6n(C)c(=O)n7C6CCC(=O)NC6=O)C5)C4)CC3)nc21 (stereo not shown) [Compound 19] | 26% | 25% | 19% | – | – | – |
| O=C1CCC(N2Cc3cc(N4CCC(CN5CCN(c6cccc(S(=O)(=O)c7ccc(Nc8ncc9c(n8)N([C@@H]8CCC[C@@H](O)C8)C(=O)C98CC8)cc7)c6)CC5)CC4)ccc3C2=O)C(=O)N1 (stereo partly drawn) [Compound 124, 3-{5-[4-({4-[3-(4-{7′-[(1R,3R)-3-hydroxycyclohexyl]-6′-oxospiro [cyclopropane-1,5′-pyrrolo[2,3-d]pyrimidin]-2′-ylamino}benzenesulfonyl)phenyl]piperazin-1-yl}methyl)piperidin-1-yl]-1-oxo-3H-isoindol-2-yl}piperidine-2,6-dione] | 48% | – | 61% | 73.6 nM | 6 nM | 57% |
| Cn1nc(N2CCC(=O)NC2=O)c2ccc(C3CCN(Cc4cccc(S(=O)(=O)N5CCC(Nc6ncc7c(n6)N([C@@H]6CCC[C@@H](O)C6)C(=O)C76CC6)CC5)c4)CC3)c(F)c21 [Compound 175, 1-[7-fluoro-6-(1-{[3-(4-{7′-[(1R,3R)-3-Hydroxycyclohexyl]-6′-oxospiro[cyclopropane-1,5′-pyrrolo[2,3-d]pyrimidin]-2′-ylamino}piperidin-1-ylsulfonyl)phenyl]methyl}piperidin-4-yl)-1-methylindazol-3-yl]-1,3-diazinane-2,4-dione] | 44% | 8% | 78% | – | 4.19 nM | – |
| CC1CCCC1N1C(=O)C2(CC2)c2cnc(NC3CCN(S(=O)(=O)N4CCC5(CCN(C(=O)CCCCCCCc6cccc7c6n(C)c(=O)n7C6CCC(=O)NC6=O)C5)C4)CC3)nc21 (stereo not shown) [Compound 47] | 18% | 10% | 44% | – | – | – |
